Here are results for one compound from paper PMC11775380, “Discovery of Novel Nav1.7-Selective Inhibitors with the 1H-Indole-3-Propionamide Scaffold for Effective Pain Relief” (Research, 2025).

Each structure is given as a SMILES string.

Assay [1] concerns native Na+ current (Nav channels) in DRG neurons. Kind of assay: Voltage-clamp recording of native Na+ current in DRG neurons. In kind it is cell-based. The note with it: 10 μM; mouse DRG neurons. The protocol: To investigate the mechanism of action of WN2-R and facilitate animal model experiments, we used voltage-clamp recording to test the effects of WN2-R on the native Na^+-, K^+-, and Ca^2+-mediated currents in DRG neurons. […] Furthermore, the effects of WN2-R on membrane excitability were examined in small (<30 μm) DRG neurons from mice using current-clamp recordings.
DRG isolation and culture were performed according to our previous report. Briefly, C57BL/6 mice (weight 18 to 20 g, 6 to 8 weeks) were euthanized via cervical dislocation under anesthesia. Lumbar DRGs were isolated from the L4 to L5 segments of the lumbar spinal cord. The DRG neurons were subsequently dissociated through enzymatic digestion with collagenase (0.32 mg/ml) and trypsin (0.15 mg/ml) at 37 °C for 30 min, with intermittent shaking. After centrifugation at 800 rpm for 5 min at room temperature, the cells were seeded onto poly-L-lysine-coated coverslips and cultured in DMEM (Gibco) supplemented with 10% fetal bovine serum (Gibco). […]
For recording Nav currents of DRG neurons, the bath solution contains (in mM) 30 NaCl, 1 MgCl2, 1.8 CaCl2, 5 CsCl, 5 KCl, 25 D-glucose, 5 HEPES, 0.1 CdCl2, and TEA-Cl (pH 7.4 with NaOH), and the pipette solution contains (in mM) 135 CsCl, 10 NaCl, and 5 HEPES (pH 7.4 with CsOH). The Nav current program is recorded following the above method. […]

The next assay has as its target T1, hNav1.5 (Homo sapiens, UniProt Q14524).
T1 construct: expressed in transfected cells; host or cells: HEK293T
Briefly: Subtype selectivity, patch clamp. Type of assay: cell-based. The note with it: read-out: Inhibitory rate on Nav1.5. As to the method:
VGSC inhibitors required credible subtype selectivity to void side effects caused by binding to nontarget subtypes. At a concentration of 1 μM, the inhibitory rates of WN2-R on hNav1.2, hNav1.3, hNav1.4, hNav1.5, mNav1.6, and hNav1.8 were determined (n = 3 to 6, Fig. 7A). […] To further evaluate the drug safety profile, high-dose acute toxicity experiments were conducted. Mice were administered a high dose of 30 mg/kg WN2-R through i.p. administration. The rotarod test, forced-swim test, and open field test were used to explore the effect of high-dose WN2-R on the motor ability of mice (n = 4). The rotarod test evaluated the drug's effect on motor coordination, the forced-swim test examined its impact on the overall motor system, and the open field test assessed the drug's influence on the motor and nervous systems.
Human embryonic kidney (HEK) 293T (ATCC CRL-3216) and ND7/23 cells (National Collection of Authenticated Cell Cultures SCSP-5026) were cultured under standard conditions (5% CO2, 37 °C) in Dulbecco’s modified Eagle’s medium (DMEM) containing 10% fetal bovine serum and 1% penicillin-streptomycin solution(all from Gibco, Thermo Fisher Scientific, Waltham, MA, USA). When the cells reached 70% to 90% confluence, human Nav1.2 (hNav1.2), human Nav1.3 (hNav1.3), human Nav1.4 (hNav1.4), human Nav1.5 (hNav1.5), and mouse Nav1.6 (mNav1.6) channel plasmids were cotransfected with enhanced green fluorescent protein (eGFP) into HEK293T cells. Additionally, plasmids expressing β1 and β2 subunits tagged with eGFP were cotransfected with the human Nav1.7 (hNav1.7) channel into HEK293T cells. Human Nav1.8 (hNav1.8) was transiently transfected into ND7/23 cells, along with eGFP, using Lipofectamine 2000 (Invitrogen), adhering strictly to the manufacturer’s protocol. For manual patch-clamp experiments, the cells were plated onto glass coverslips and used within 20 to 48 h of transfection.
Whole-cell patch-clamp recordings were conducted at 25 ± 2 °C, utilizing an EPC 10USB patch-clamp amplifier (HEKA Elektronik, Lambrecht, Germany). Pipettes, with access resistance between 2.0 and 3.0 MΩ, were pulled from borosilicate glass capillary tubes using a 2-step vertical microelectrode puller (PC-10, Narishige Group, Tokyo, Japan). Voltage-clamp recordings were obtained with PatchMaster software v2 × 73 (HEKA Elektronik) 5 min after establishing whole-cell configuration, sampled at 20 kHz, and filtered at 5 kHz. To minimize voltage errors, 80% series resistance compensation was applied. Pipettes were filled with 140 mM CsF, 10 mM NaCl, 1 mM EGTA, and 10 mM HEPES (pH=7.4, adjusted with CsOH). The external solution contained 140 mM NaCl, 2 mM CaCl2, 1 mM MgCl2, 5 mM KCl, 10 mM HEPES, and 10 mM glucose (pH=7.4, adjusted with NaOH). IC50 values were determined in HEK293T or ND7/23 cell lines by voltage clamping at −80 mV, followed by stepping to the V1/2 of inactivation for 8 s to facilitate compound binding.
A general note: In patch-clamp work, channel activity is measured electrically.

T1 sequence (Q14524 whole entry): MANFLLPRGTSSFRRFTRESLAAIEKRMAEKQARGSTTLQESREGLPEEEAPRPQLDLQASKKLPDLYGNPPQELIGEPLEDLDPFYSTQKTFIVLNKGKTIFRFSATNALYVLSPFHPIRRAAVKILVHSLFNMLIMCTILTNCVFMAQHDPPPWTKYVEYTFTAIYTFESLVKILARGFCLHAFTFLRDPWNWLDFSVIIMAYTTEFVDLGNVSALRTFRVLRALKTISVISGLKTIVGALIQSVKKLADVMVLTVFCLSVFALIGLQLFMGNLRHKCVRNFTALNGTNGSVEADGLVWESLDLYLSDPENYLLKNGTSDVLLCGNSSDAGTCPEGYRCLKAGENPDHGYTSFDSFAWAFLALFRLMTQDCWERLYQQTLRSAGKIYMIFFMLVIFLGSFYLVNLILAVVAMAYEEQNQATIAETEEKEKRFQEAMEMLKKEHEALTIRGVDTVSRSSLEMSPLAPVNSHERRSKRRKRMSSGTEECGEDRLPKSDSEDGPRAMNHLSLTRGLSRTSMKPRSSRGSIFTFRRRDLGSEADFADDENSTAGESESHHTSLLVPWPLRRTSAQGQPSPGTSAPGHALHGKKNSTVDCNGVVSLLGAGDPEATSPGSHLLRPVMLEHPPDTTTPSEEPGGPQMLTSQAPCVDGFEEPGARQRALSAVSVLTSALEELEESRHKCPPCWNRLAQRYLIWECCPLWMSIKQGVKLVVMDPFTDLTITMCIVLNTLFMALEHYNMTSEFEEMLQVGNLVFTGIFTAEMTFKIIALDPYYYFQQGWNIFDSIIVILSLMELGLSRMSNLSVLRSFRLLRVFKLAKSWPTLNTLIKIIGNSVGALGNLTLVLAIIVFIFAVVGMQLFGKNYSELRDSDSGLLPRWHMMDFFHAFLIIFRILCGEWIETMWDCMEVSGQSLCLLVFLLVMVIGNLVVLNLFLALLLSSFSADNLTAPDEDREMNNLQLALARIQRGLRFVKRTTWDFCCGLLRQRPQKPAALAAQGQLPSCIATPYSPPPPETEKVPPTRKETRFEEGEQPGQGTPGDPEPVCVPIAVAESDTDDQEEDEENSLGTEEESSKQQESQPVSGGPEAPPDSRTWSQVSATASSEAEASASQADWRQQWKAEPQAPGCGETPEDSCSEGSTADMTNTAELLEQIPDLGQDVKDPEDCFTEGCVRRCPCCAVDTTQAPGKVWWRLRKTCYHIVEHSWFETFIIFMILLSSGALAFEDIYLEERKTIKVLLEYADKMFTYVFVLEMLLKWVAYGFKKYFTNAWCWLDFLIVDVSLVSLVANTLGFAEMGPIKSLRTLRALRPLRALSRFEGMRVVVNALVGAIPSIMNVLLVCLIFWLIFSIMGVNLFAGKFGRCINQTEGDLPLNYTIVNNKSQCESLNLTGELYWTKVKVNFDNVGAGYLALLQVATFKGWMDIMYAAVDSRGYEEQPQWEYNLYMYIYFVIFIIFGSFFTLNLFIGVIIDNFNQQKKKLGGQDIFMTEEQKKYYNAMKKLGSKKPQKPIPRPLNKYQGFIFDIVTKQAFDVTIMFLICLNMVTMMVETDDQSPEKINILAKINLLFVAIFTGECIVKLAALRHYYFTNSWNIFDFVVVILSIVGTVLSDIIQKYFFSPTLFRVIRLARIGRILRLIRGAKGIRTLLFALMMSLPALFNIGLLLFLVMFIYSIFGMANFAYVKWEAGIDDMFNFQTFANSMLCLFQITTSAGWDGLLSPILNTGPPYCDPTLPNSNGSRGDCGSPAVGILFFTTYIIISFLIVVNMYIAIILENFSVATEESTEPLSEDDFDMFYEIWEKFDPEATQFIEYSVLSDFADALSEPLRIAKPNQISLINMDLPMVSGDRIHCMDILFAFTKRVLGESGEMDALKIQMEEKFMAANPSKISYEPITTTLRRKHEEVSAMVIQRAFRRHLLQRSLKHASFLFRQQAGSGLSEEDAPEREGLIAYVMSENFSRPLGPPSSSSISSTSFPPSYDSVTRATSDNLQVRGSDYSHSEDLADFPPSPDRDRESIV

Take `Cc1ccc(Cn2cc([C@H](CC(=O)NCCN(C)C)c3ccc(F)cc3)c3ccccc32)cc1` [WN2-R]: the “Effect on native Na+ current” value in assay [1] is “completely inhibited”. Besides, at hNav1.5, the inhibition at 1 µM amounted to 19.1%.
